pIC50: −log10 of the molar value. Where a name gives a salt, the structure may show the parent alone.
Assays:
[1] = biological target: T1, human full-lengt MKNK1 (Homo sapiens, UniProt Q9BUB5, T385D); assay: MKNK1 kinase assay (MKNK1 TR-FRET assay); type: biochemical; conditions: ATP final conc. 10 μM, 15 min preincubation, 45 min reaction at 22° C.
T1 construct: purchased Carna Biosciences 02-145; host or cells: insect cells (baculovirus expression system)
Description: MKNK1-inhibitory activity of compounds of the present invention was quantified employing the MKNK1 TR-FRET assay as described in the following paragraphs.
(§1) A recombinant fusion protein of Glutathione-S-Transferase (GST, N-terminally) and human full-lengt MKNK1 (amino acids 1-424 and T344D of accession number BAA 19885.1), expressed in insect cells using baculovirus expression system and purified via glutathione sepharose affinity chromatography, was purchased from Carna Biosciences (product no 02-145) and used as enzyme. As substrate for the kinase reaction the biotinylated peptide biotin-Ahx-IKKRKLTRRKSLKG (C-terminus in amide form) was used which can be purchased e.g. form the company Biosyntan (Berlin-Buch, Germany).
(§2) For the assay 50 nL of a 100 fold concentrated solution of the test compound in DMSO was pipetted into a black low volume 384 well microtiter plate (Greiner Bio-One, Frickenhausen, Germany), 2 μL of a solution of MKNK1 in aqueous assay buffer [50 mM HEPES pH 7.5, 5 mM magnesium chloride, 1.0 mM dithiothreitol, 0.005% (v/v) Nonidet-P40 (Sigma)] was added and the mixture was incubated for 15 min at 22° C. to allow pre-binding of the test compounds to the enzyme before the start of the kinase reaction. Then the kinase reaction was started by the addition of 3 μL of a solution of adenosine-tri-phosphate (ATP, 16.7 μM=>final conc. in the 5 μL assay volume is 10 μM) and substrate (0.1 μM=>final conc. in the 5 μL assay volume is 0.06 μM) in assay buffer and the resulting mixture was incubated for a reaction time of 45 min at 22° C. The concentration of MKNK1 was adjusted depending of the activity of the enzyme lot and was chosen appropriate to have the assay in the linear range, typical concentrations were in the range of 0.05 μg/ml. The reaction was stopped by the addition of 5 μL of a solution of TR-FRET detection reagents (5 nM streptavidine-XL665 [Cisbio Bioassays, Codolet, France] and 1 nM anti-ribosomal protein S6 (pSer236)-antibody from Invitrogen [#44921G] and 1 nM LANCE EU-W1024 labeled ProteinG [Perkin-Elmer, product no. AD0071]) in an aqueous EDTA-solution (100 mM EDTA, 0.1% (w/v) bovine serum albumin in 50 mM HEPES pH 7.5).
The resulting mixture was incubated for 1 h at 22° C. to allow the formation of complex between the phosphorylated biotinylated peptide and the detection reagents. Subsequently the amount of phosphorylated substrate was evaluated by measurement of the resonance energy transfer from the Eu-chelate to the streptavidine-XL. Therefore, the fluorescence emissions at 620 nm and 665 nm after excitation at 350 nm were measured in a TR-FRET reader, e.g. a Rubystar (BMG Labtechnologies, Offenburg, Germany) or a Viewlux (Perkin-Elmer). The ratio of the emissions at 665 nm and at […] was taken as the measure for the amount of phosphorylated substrate. The data were normalised (enzyme reaction without inhibitor=0% inhibition, all other assay components but no enzyme=100% inhibition). Usually the test compounds were tested on the same microtiterplate in 11 different concentrations in the range of 20 μM to 0.1 nM (20 μM, 5.9 μM, 1.7 μM, 0.51 μM, 0.15 μM, 44 nM, 13 nM, 3.8 nM, 1.1 nM, 0.33 nM and 0.1 nM, the dilution series prepared separately before the assay on the level of the 100 fold concentrated solutions in DMSO by serial 1:3.4 dilutions) in duplicate values for each concentration and […] were calculated by a 4 parameter fit.

[2] = biological target: T2, human full-length MKNK1 (Homo sapiens, UniProt Q9BUB5, T385D); assay: MKNK1 kinase high ATP assay (TR-FRET-based); type: biochemical; conditions: ATP final conc. 2 mM, 15 min preincubation, 30 min reaction at 22° C.
T2 construct: purchased Carna Biosciences 02-145; host or cells: insect cells (baculovirus expression system)
T2 sequence (Q9BUB5 1-424 isoform Q9BUB5-2 T344D): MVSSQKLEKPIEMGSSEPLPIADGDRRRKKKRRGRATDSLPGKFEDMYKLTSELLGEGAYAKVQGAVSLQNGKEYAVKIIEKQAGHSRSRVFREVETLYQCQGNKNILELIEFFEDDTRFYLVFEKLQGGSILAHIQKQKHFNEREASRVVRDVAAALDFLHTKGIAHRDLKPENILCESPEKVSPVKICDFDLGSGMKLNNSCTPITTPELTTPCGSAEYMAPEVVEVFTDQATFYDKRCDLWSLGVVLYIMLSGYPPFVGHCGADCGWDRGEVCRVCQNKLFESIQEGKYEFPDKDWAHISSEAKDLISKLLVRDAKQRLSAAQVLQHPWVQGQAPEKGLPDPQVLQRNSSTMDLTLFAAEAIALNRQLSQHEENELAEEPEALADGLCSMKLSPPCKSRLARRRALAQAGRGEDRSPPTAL
Method: MKNK1 Kinase High ATP Assay
MKNK1-inhibitory activity at high ATP of compounds of the present invention after their preincubation with MKNK1 was quantified employing the TR-FRET-based MKNK1 high ATP assay as described in the following paragraphs.
as §1, with “human full-length” for “human full-lengt”, “was used,” for “was used”, “e.g. from” for “e.g. form”
as §2, with “3.3 mM=>final” for “16.7 μM=>final”, “2 mM)” for “10 μM)”, “30” for “45”, “0.003 μg/mL.” for “0.05 μg/ml.”
The resulting mixture was incubated for 1 h at 22° C. to allow the formation of complex between the phosphorylated biotinylated peptide and the detection reagents. Subsequently the amount of phosphorylated substrate was evaluated by measurement of the resonance energy transfer from the Eu-chelate to the streptavidine-XL. Therefore, the fluorescence emissions at 620 nm and 665 nm after excitation at 350 nm were measured in a TR-FRET reader, e.g. a Rubystar (BMG Labtechnologies, Offenburg, Germany) or a Viewlux (Perkin-Elmer). The ratio of the emissions at 665 nm and at […] was taken as the measure for the amount of phosphorylated substrate. The data were normalised (enzyme reaction without inhibitor=0% inhibition, all other assay components but no enzyme=100% inhibition).

T1 sequence (Q9BUB5 1-424 isoform Q9BUB5-2 T344D): as above

Compound	pIC50 [1]	pIC50 [2]
N[C@H]1C[C@H](Oc2ccc3ncc(-c4cc5cnccc5o4)n3n2)C1 [Example 14, trans-3-{[3-(Furo[3,2-c]pyridin-2-yl)imidazo[1,2-b]pyridazin-6-yl]oxy}cyclobutanamine salt with formic acid]	8.30	7.47
COc1nccc2oc(-c3cnc4ccc(OC[C@H](N)COCc5ccccc5)nn34)cc12 [Example 11, (2R)-1-(Benzyloxy)-3-{[3-(4-methoxyfuro[3,2-c]pyridin-2-yl)imidazo[1,2-b]-pyridazin-6-yl]oxy}propan-2-amine]	7.77	7.23
COc1nccc2oc(-c3cnc4ccc(OC[C@H](N)CO)nn34)cc12 [Example 15, (2R)-2-Amino-3-{[3-(4-methoxyfuro[3,2-c]pyridin-2-yl)imidazo[1,2-b]pyridazin-6-yl]oxy}propan-1-C1]	7.92	7.51
COc1nccc2oc(-c3cnc4ccc(OC[C@@H](N)[C@@H](C)OCc5ccccc5)nn34)cc12 [Example 10, (2R,3R)-3-(Benzyloxy)-1-{[3-(4-methoxyfuro[3,2-c]pyridin-2-yl)imidazo[1,2-b]-pyridazin-6-yl]oxy}butan-2-amine]	7.47	7.21

The remaining lines, values ahead:

pIC50 [1]	pIC50 [2]	Compound
7.49	7.24	COc1nccc2oc(-c3cnc4ccc(OCC(CN)c5ccccc5)nn34)cc12 (stereo not drawn) [Example 23, 3-{[3-(4-Methoxyfuro[3,2-c]pyridin-2-yl)imidazo[1,2-b]pyridazin-6-yl]oxy}-2-phenylpropan-1-amine]
7.19	6.88	C[C@H](N)COc1ccc2ncc(-c3cc4cnccc4o3)n2n1 [Example 20, (2S)-1-{[3-(Furo[3,2-c]pyridin-2-yl)imidazo[1,2-b]pyridazin-6-yl]oxy}propan-2-amine]
7.00	6.93	COc1nccc2oc(-c3cnc4ccc(OC(CN)Cc5ccccc5)nn34)cc12 (stereo not drawn) [Example 33, 2-{[3-(4-Methoxyfuro[3,2-c]pyridin-2-yl)imidazo[1,2-b]pyridazin-6-yl]oxy}-3-phenylpropan-1-amine]
8.10	7.64	CCOc1nccc2oc(-c3cnc4ccc(OC[C@@H](C)N)nn34)cc12 [Example 38, (2R)-1-{[3-(4-Ethoxyfuro[3,2-c]pyridin-2-yl)imidazo[1,2-b]pyridazin-6-yl]oxy}-propan-2-amine]
6.60	6.23	CCN(C(=O)OC(C)(C)C)c1nccc2oc(-c3cnc4ccc(OC[C@H](C)N)nn34)cc12 [Example 39, tert-Butyl[2-(6-{[(2S)-2-aminopropyl]oxy}imidazo[1,2-b]pyridazin-3-yl)-furo[3,2-c]pyridin-4-yl]ethylcarbamate]

Reference: patent US9643974B2, “Amino-substituted imidazopyridazines” (Bayer Intellectual Property GmbH, priority 2011, dated 2017)
